Experimental data taken from US11242333B2, “Inhibitors of plasma kallikrein” (Kalvista Pharmaceuticals Limited, priority 2013, dated 2022).

Assays:
Human plasma kallikrein = Human plasma kallikrein (Homo sapiens (Human), UniProt P03952); assay: Determination of the IC50 for plasma kallikrein; format: biochemical; details: 37° C., fluorogenic substrate H-DPro-Phe-Arg-AFC; read-out: IC50 (human PKal)
Experimental: Determination of the IC50 for plasma kallikrein
(§1) Plasma kallikrein inhibitory activity in vitro was determined using standard published methods (see e.g. Johansen et al., Int. J. Tiss. Reac. 1986, 8, 185; Shori et al., Biochem. Pharmacol., 1992, 43, 1209; Stürzebecher et al., Biol. Chem. Hoppe-Seyler, 1992, 373, 1025). Human plasma kallikrein (Protogen) was incubated at 37° C. with the fluorogenic substrate H-DPro-Phe-Arg-AFC and various concentrations of the test compound. Residual enzyme activity (initial rate of reaction) was determined by measuring the change in […] at 410 nm and the IC50 value for the test compound was determined.

Human KLK1 = Human KLK1 (Homo sapiens (Human), UniProt P06870); assay: Determination of the IC50 for KLK1; format: biochemical; details: 37° C., fluorogenic substrate H-DVal-Leu-Arg-AFC
Experimental: Determination of the IC50 for KLK1
as §1, with “KLK1” for “Plasma kallikrein”, “KLK1 (Callbiochem)” for “plasma kallikrein (Protogen)”, “H-DVal-Leu-Arg-AFC” for “H-DPro-Phe-Arg-AFC”

Sequence of Human plasma kallikrein (P03952 391-638): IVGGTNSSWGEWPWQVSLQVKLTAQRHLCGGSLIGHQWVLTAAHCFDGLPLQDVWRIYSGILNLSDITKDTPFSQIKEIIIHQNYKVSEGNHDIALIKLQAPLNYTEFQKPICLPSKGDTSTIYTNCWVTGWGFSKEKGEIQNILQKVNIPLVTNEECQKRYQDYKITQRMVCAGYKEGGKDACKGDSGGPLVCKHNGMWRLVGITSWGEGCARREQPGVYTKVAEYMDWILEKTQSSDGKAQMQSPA
Sequence of Human plasma kallikrein (P03952 20-390 partner): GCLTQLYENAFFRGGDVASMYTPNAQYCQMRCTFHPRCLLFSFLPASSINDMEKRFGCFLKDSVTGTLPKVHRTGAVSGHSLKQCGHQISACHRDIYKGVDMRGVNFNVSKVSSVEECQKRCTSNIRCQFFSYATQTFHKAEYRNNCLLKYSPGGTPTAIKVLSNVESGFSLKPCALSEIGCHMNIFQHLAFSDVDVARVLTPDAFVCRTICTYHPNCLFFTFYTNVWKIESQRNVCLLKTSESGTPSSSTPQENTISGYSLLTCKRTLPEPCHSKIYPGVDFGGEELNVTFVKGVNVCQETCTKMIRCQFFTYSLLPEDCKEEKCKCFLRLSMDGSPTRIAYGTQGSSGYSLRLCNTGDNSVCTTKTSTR
Sequence of Human KLK1 (P06870 25-262): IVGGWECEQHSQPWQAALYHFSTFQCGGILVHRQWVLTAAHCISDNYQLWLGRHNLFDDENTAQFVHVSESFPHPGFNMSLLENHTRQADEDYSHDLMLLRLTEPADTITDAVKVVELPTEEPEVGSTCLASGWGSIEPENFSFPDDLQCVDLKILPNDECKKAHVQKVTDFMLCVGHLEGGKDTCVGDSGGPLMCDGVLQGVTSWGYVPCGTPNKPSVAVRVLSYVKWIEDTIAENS

IC50 (Human plasma kallikrein) [nM] | IC50 (Human KLK1) [nM] | Structure (SMILES)
3.86 |  | Cc1cnn(Cc2ccc(Cc3cncc(C(=O)NCc4ccc5c(N)nccc5c4)c3)cc2)c1 [Example 1]
216 |  | Cc1cnn(Cc2ccc(Cc3cncc(C(=O)NCc4cnc5[nH]ccc5c4)c3)cc2)c1 [Example 2, 5-({4-[(4-Methylpyrazol-1-yl)methyl]phenyl}methyl)-N-{7H-pyrrolo[2,3-b]pyridin-5-ylmethyl}pyridine-3-carboxamide]
580 | 27800 | O=C(NCc1cnc2[nH]ccc2c1)c1ccc(=O)n(Cc2ccc(Cn3ccccc3=O)cc2)c1 [Example 6, 6-Oxo-1-({4-[(2-oxopyridin-1-yl)methyl]phenyl}methyl)-N-{7H-pyrrolo[2,3-b]pyridin-5-ylmethyl}pyridine-3-carboxamide]

Structure (SMILES) | IC50 (Human plasma kallikrein) [nM] | IC50 (Human KLK1) [nM]
Cc1cnn(Cc2ccc(Cc3ccnc(C(=O)NCc4cnc5[nH]ccc5c4)c3)cc2)c1 [Example 4, 4-({4-[(4-Methylpyrazol-1-yl)methyl]phenyl}methyl)-N-{7H-pyrrolo[2,3-b]pyridin-5-ylmethyl}pyridine-2-carboxamide] | 6610 | 
